# Measurements reported in patent publication US20240358693A1, “METHODS OF TREATING PAIN” (Aisa Pharma, Inc., priority 2023, published 2024).
# Tested on: participants with SSc-RP
# Experiment: Scleroderma Health Assessment Questionnaire (SHAQ): disability indices and visual analog scales
# Assay type: in vivo, human
# Text: The standard, validated, patient reported outcome measures tool for SSc patients, the Scleroderma Health Assessment Questionnaire (SHAQ), will be used to assess the participant qualify of life. Details are attached in the Appendix. The participant quality of life will be scored, and a disability index calculated for each questionnaire completed by the patient at Screening and each in-clinic visit. The absolute change in participant quality of life from baseline to the end of each dosing period will be calculated similar to frequency data as before.
# The SHAQ includes a Raynaud's VAS, which will be reported at screening and each in-clinic visit. The absolute change in Raynaud-VAS, assessed by the participants response to the SHAQ question ‘In the past 7 days, how much have your Raynaud's interfered with your daily activities?’ at baseline and the end of each dosing period will be calculated similar to frequency data as before.
# The SHAQ is used to calculate a Disability Index to assess the participant qualify of life. The eight categories assessed by the Disability Index are 1) dressing and grooming, 2) arising, 3) eating, 4) walking, 5) hygiene, 6) reach, 7) grip, and 8) common daily activities. For each of these categories, patients report the amount of difficulty they have in performing two or three specific activities.
# There are four possible responses for the Disability Index questions: • Without any difficulty=0 • With some difficulty=1 • With much difficulty=2 • Unable to do=3. • The highest score reported by the patient for any component question of the eight categories determines the score for that category. • If a component question is left blank or the response is too ambiguous to assign a score, then the score for that category is determined by the remaining completed question(s). • If all component questions are blank or if more than one answer is given, then follow up with the respondent is required. • If the respondent's mark is between the response columns, then move it to the closest one. If it's directly between the two, move it to the higher one.
# Each of the disability items on the SHAQ has a companion aids/devices variable that is used to record what type(s) of assistance, if any, the participant uses for his/her usual activities. These variables (see below) are coded as follows: • 0=No assistance is needed. • 1=A special device is used by the patient in his/her usual activities. • 2=The patient usually needs help from another person. • 3=The patient usually needs BOTH a special device AND help from another person.
# The scoring variables and scoring rules permit the computation of two disability indices, the Standard Disability Index and the Alternative Disability Index.
# This question results in a new set of category scores that are computed by adjusting the score for each category, if necessary, based on the patient's use of an aid or device or assistance for that category. If either devices and/or help from another person are checked for a category, the score is set to “2”, unless the score is already “3” (i.e., scores of “0” or “1” are increased to “2”). For example, if the highest score for the dressing category is “1”, and the patient says they use a device for dressing, the computed category score would be “2”. The sum of the computed categories scores is then calculated and divided by the number of categories answered. This gives a score in the 0 to 3 range.
# The aid and device variables are not used to calculate the alternative disability index; it is calculated by adding the scores for each of the categories and dividing by the number of categories answered. This gives a score in the 0 to 3 range.
# The standard, validated, patient reported outcome measures tool for SSc patients, the SHAQ, was collected at the time points specified in the study schedules (FIG. 2 and FIGS. 4A and 4B) to assess the participant's quality of life. The SHAQ included a Raynaud's VAS that will also be reported separately.
# [1] = Pooled Cilnidipine (N = 7), sensitivity analysis, Modified ITT, Part A
# [2] = Pooled Cilnidipine (N = 8), Day 12, PP Population Part A, SSc patients
# [3] = Pooled Cilnidipine (N = 8), PP Population Part A, SSc patients
# [4] = Pooled Cilnidipine (n = 7), mITT population
smiles,measurement,setting,value
"COCCOC(=O)C1=C(C)NC(C)=C(C(=O)OC/C=C/c2ccccc2)C1c1cccc([N+](=O)[O-])c1 (stereo not shown) [Cilnidipine, cilnidipine]","SHAQ VAS Breathing Problems: Change from Baseline, Median",[1],0.000
same,"SHAQ VAS Breathing Problems: Day 12, Mean",[1],1.029
same,"SHAQ VAS Breathing Problems: Day 12, Median",[1],0.000
same,"SHAQ VAS Breathing Problems: Percent Change from Baseline, Mean",[1],−8.17%
same,"SHAQ VAS Breathing Problems: Percent Change from Baseline, Median",[1],−41.33%
same,"SHAQ VAS Finger Ulcers: Baseline, Mean",[1],1.171
same,"SHAQ VAS Finger Ulcers: Baseline, Median",[1],0.300
same,"SHAQ VAS Finger Ulcers: Change from Baseline, Mean",[1],−0.643
same,"SHAQ VAS Finger Ulcers: Change from Baseline, Median",[1],0.000
same,"SHAQ VAS Finger Ulcers: Day 12, Mean",[1],0.529
same,"SHAQ VAS Finger Ulcers: Day 12, Median",[1],0.000
same,"SHAQ VAS Finger Ulcers: Percent Change from Baseline, Mean",[1],−17.08%
same,"SHAQ VAS Finger Ulcers: Percent Change from Baseline, Median",[1],−50.82%
same,"SHAQ VAS Intestinal Problems: Baseline, Mean",[1],2.057
same,"SHAQ VAS Intestinal Problems: Baseline, Median",[1],1.000
same,"SHAQ VAS Intestinal Problems: Change from Baseline, Mean",[1],−0.943
same,"SHAQ VAS Intestinal Problems: Change from Baseline, Median",[1],0.000
same,"SHAQ VAS Intestinal Problems: Day 12, Mean",[1],1.114
same,"SHAQ VAS Intestinal Problems: Day 12, Median",[1],0.600
same,"SHAQ VAS Intestinal Problems: Percent Change from Baseline, Mean",[1],−32.42%
same,"SHAQ VAS Intestinal Problems: Percent Change from Baseline, Median",[1],−44.12%
same,"SHAQ VAS Overall Disease Severity: Baseline, Mean",[1],2.700
same,"SHAQ VAS Overall Disease Severity: Baseline, Median",[1],2.900
same,"SHAQ VAS Overall Disease Severity: Change from Baseline, Mean",[1],−1.214
same,"SHAQ VAS Overall Disease Severity: Change from Baseline, Median",[1],−1.500
same,"SHAQ VAS Overall Disease Severity: Day 12, Mean",[1],1.486
same,"SHAQ VAS Overall Disease Severity: Day 12, Median",[1],1.200
same,"SHAQ VAS Overall Disease Severity: Percent Change from Baseline, Mean",[1],−59.80%
same,"SHAQ VAS Overall Disease Severity: Percent Change from Baseline, Median",[1],−55.86%
same,"SHAQ VAS Pain: Baseline, Mean",[1],2.057
same,"SHAQ VAS Pain: Baseline, Median",[1],1.700
same,"SHAQ VAS Pain: Change from Baseline, Mean",[1],−0.529
same,"SHAQ VAS Pain: Change from Baseline, Median",[1],−0.500
same,"SHAQ VAS Pain: Day 12, Mean",[1],1.529
same,"SHAQ VAS Pain: Day 12, Median",[1],1.000
same,"SHAQ VAS Pain: Percent Change from Baseline, Mean",[1],−31.22%
same,"SHAQ VAS Pain: Percent Change from Baseline, Median",[1],−44.98%
same,"SHAQ VAS Raynaud's: Baseline, Mean",[1],1.900
same,"SHAQ VAS Raynaud's: Baseline, Median",[1],1.100
same,"SHAQ VAS Raynaud's: Change from Baseline, Mean",[1],−0.357
same,"SHAQ VAS Raynaud's: Change from Baseline, Median",[1],−0.300
same,"SHAQ VAS Raynaud's: Day 12, Mean",[1],1.543
same,"SHAQ VAS Raynaud's: Day 12, Median",[1],1.100
same,"SHAQ VAS Raynaud's: Percent Change from Baseline, Mean",[1],−18.64%
same,"SHAQ VAS Raynaud's: Percent Change from Baseline, Median",[1],−38.67%
same,"SHAQ Standard Disability Index, Change from Baseline, Mean",[2],−0.031
same,"SHAQ Standard Disability Index, Change from Baseline, Median",[2],0.000
same,"SHAQ Standard Disability Index, Percent Change from Baseline, Mean",[2],−16.00%
same,"SHAQ Standard Disability Index, Percent Change from Baseline, Median",[2],0.00%
same,"SHAQ Standard Disability Index, In-Clinic Visit (Day 12), Mean",[3],0.469
same,"SHAQ Standard Disability Index, In-Clinic Visit (Day 12), Median",[3],0.188
same,SHAQ % change VAS Raynauds,[4],−17%
same,SHAQ % change in Alternative Disability Index,[4],−13%
same,SHAQ % change in Pain,[4],−31%
same,SHAQ % change in Standard Disability Index,[4],−25%
same,SHAQ % change overall SSc Disease Severity,[4],−60%
same,SHAQ % improvement in Breathing (median),[4],41%
same,SHAQ % improvement in VAS Digital Ulcers,[4],19%
same,"SHAQ % Δ from baseline, VAS Breathing, mean",Pooled cilnidipine (4),−8.2%
same,"SHAQ % Δ from baseline, VAS Breathing, median",Pooled cilnidipine (4),−41.3%
same,"SHAQ % Δ from baseline, VAS Finger Ulcers, mean",Pooled cilnidipine (4),−17.1%
